From US9206200B2, “N-linked lactam M1 receptor positive allosteric mogulators” (Merck Sharp & Dohme Corp., priority 2011, dated 2015)

Target: T1, acetylcholine muscarinic M1 receptor (Homo sapiens, UniProt P11229)
T1 construct: expressed in transfected cells; host or cells: CHOnfat cells (CHO cells with an NFAT reporter) expressing hM1, kept under Geneticin selection
T1 sequence (P11229 1-460): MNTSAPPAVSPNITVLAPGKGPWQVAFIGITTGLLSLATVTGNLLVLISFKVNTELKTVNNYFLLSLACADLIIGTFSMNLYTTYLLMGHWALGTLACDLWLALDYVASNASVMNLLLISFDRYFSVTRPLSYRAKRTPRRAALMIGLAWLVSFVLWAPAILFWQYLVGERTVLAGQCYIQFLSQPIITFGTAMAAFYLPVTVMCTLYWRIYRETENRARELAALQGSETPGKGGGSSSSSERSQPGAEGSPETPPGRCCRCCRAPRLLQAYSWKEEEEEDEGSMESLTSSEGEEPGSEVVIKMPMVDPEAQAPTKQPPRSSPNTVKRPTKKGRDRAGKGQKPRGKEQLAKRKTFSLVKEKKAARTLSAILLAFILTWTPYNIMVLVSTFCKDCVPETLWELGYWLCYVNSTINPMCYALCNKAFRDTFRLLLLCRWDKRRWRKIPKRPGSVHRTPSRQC
Assay: muscarinic FLIPR assay: intracellular calcium in CHOnfat/hM1 cells, potentiation of EC20 acetylcholine
Format: cell-based
Settings: Table 1; CHOnfat/hM1 cells, FLIPR, EC20 acetylcholine (3 nM final); read-out: M1 Pot.
Description: The assay studies the effect of one or several concentrations of test compounds on basal or acetylcholine-stimulated Ca^2+ levels using FLIPR.
Compounds are prepared and subjected to a preincubation period of […]. Thereafter, a single EC20 concentration of acetylcholine is added to each well (3 nM final). The intracellular Ca^2+ level of each sample is measured and compared to an acetylcholine control to determine any modulatory activity.
Cells: CHOnfat/hM1, hM2, hM3 or hM4 cells are plated 24 hr before the assay at a density of 18,000 cells/well (100 μL) in a 384 well plate. CHOnfat/hM1 and CHOnfat/hM3 Growth Medium: 90% DMEM (Hi Glucose); 10% HI FBS; 2 mM L-glutamine; 0.1 mM NEAA; Pen-Strep; and 1 mg/ml Geneticin, are added. For M2Gqi5CHOnfat and M4Gqi5CHOnfat cells, an additional 600 ug/ml hygromycin is added.
Equipment: 384 well plate, 120 μl, addition plate; 96-well Whatman 2 ml Uniplate Incubator, 37° C., 5% CO2; Skatron EMBLA-384 Plate Washer; Multimek Pipetting System; Genesis Freedom 200 System; Mosquito System; Temo Nanolitre Pipetting System; and FLIPR^384 Fluorometric Imaging Plate Reader System are used.
Buffers. Assay Buffer: Hanks Balanced Salt Solution, with 20 mM Hepes, 2.5 mM Probenecid (Sigma P-8761) first dissolved in 1 N NaOH, 1% Bovine Serum Albumin (Sigma A-9647). Dye Loading Buffer: Assay Buffer plus 1% Fetal Bovine Serum and Fluo-4AM/Pluronic Acid Mixture. 2 mM Fluo-4AM ester stock in DMSO (Molecular Probes F-14202) Concentration of 2 μM in buffer for a final concentration of 1 μM in Assay. 20% Pluronic Acid Solution stock, with concentration of 0.04% in Buffer, 0.02% in Assay.
65 μL of 2 mM Fluo-4AM are mixed with 130 μL of 20% Pluronic Acid. The resulting solution and 650 μL FBS is added to the assay buffer for a total volume of 65 mL. Positive Controls: 4-Br-A23187: 10 mM in DMSO; final concentration 10 μM. Acetylcholine: 10 mM in water, working stock at both 20 μM and 30 μM in assay buffer, final concentration of 10 μM. This is used to check the maximum stimulation of the CHOK1/hM1 cells. 20 μM (2×) acetylcholine is added in the preincubation part of the assay, and the 30 μM (3×) stock is added in the second part. (EC20)Acetylcholine: 10 mM in water, working stock of 9 nM (3×), and final concentration in assay is 3 nM. This is used after the preincubation with test compounds. Addition of the EC20 Acetylcholine to each well with a test compound will ascertain any modulator activity. 24 wells contain 3 nM Acetylcholine alone as a control.
Determining Activity of Putative Compounds:
Screening Plate Compounds are titrated in 96-well plates (columns 2-11), 100% DMSO, started at a concentration of 15 mM (150× stock concentration), and 3-fold serial dilutions using Genesis Freedom200 System. Four 96-well plates are combined into a 384-well plate using Mosquito Nanolitre Pipetting System by transferring 1 μl of serial diluted compounds to each well, and 1 mM acetylcholine (100× stock concentration) were added as a control. Using Temo, 49 μl assay buffer is added to each well of the 384-well plate right before assay.
In a 96-well Whatman 2 ml Uniplate, 9 nM Acetylcholine (3×) is pipetted into wells corresponding to the screening compounds, and into control wells. The 30 μM acetylcholine control (3×) is added into control wells, and the 3× agonist plate is transferred into a 384 well plate.
Cells are washed three times with 100 μL of buffer, leaving […] of buffer in each well. Using Multimek, 30 μL of Dye Loading Buffer is added into each well and incubated at 37° C., 5% CO2 for up to one hr.
After 60 min, the cells are washed three times with 100 μL of buffer, leaving 30 μL of buffer in each well. The cell plate, screening plate, and agonist addition plates are placed on the platform in the FLIPR and the door closed. A signal test to check background fluorescence and basal fluorescence signal is performed. Laser intensity is adjusted if necessary.

Structure (SMILES)	EC50 [µM]
O=C1c2cc(CN3CCC(O)(c4ccncc4)CC3)c3ccccc3c2CN1C1CCCCC1O (centres unmarked) [Example 43, 2-(2-hydroxycyclohexyl)-5-[(4-hydroxy-4-pyridin-4-ylpiperidin-1-yl)methyl]-1,2-dihydro-3H-benzo[e]isoindol-3-one]	0.83
N#CC1(c2ccccn2)CCN(Cc2cc3c(c4ccccc24)CN([C@@H]2CCCC[C@H]2O)C3=O)CC1 [Example 46, 1-({2-[(1R,2R)-2-hydroxycyclohexyl]-3-oxo-2,3-dihydro-1H-benzo[e]isoindol-5-yl}methyl)-4-pyridin-2-ylpiperidine-4-carbonitrile]	0.539
N#CC1(c2ccccn2)CCN(Cc2cc3c(c4ccccc24)CN([C@@H]2CCCC[C@@H]2O)C3=O)CC1 [Example 47, 1-({2-[(1R,2S)-2-hydroxycyclohexyl]-3-oxo-2,3-dihydro-1H-benzo[e]isoindol-5-yl}methyl)-4-pyridin-2-ylpiperidine-4-carbonitrile]	0.147
N#CC1(c2cccc(Cl)n2)CCN(Cc2cc3c(c4ccccc24)CN([C@H]2CCCC[C@@H]2O)C3=O)CC1 [Example 48]	0.053
C=Cc1cccc(C2(C#N)CCN(Cc3cc4c(c5ccccc35)CN([C@H]3CCCC[C@@H]3O)C4=O)CC2)n1 [Example 49, 4-(6-ethenylpyridin-2-yl)-1-({2-[(1S,2S)-2-hydroxycyclohexyl]-3-oxo-2,3-dihydro-1H-benzo[e]isoindol-5-yl}methyl)piperidine-4-carbonitrile]	0.114
N#CC1(c2cnccn2)CCN(Cc2cc3c(c4ccccc24)CN([C@H]2CCCC[C@@H]2O)C3=O)CC1 [Example 50, 1-({2-[(1S,2S)-2-hydroxycyclohexyl]-3-oxo-2,3-dihydro-1H-benzo[e]isoindol-5-yl}methyl)-4-(pyrazin-2-yl)piperidine-4-carbonitrile]	0.031
N#CC1(c2ccncn2)CCN(Cc2cc3c(c4ccccc24)CN([C@H]2CCCC[C@@H]2O)C3=O)CC1 [Example 51, 1-({2-[(1S,2S)-2-hydroxycyclohexyl]-3-oxo-2,3-dihydro-1H-benzo[e]isoindol-5-yl}methyl)-4-(pyrimidin-4-yl)piperidine-4-carbonitrile]	0.017
N#CC1(c2cccnn2)CCN(Cc2cc3c(c4ccccc24)CN([C@H]2CCCC[C@@H]2O)C3=O)CC1 [Example 52, 1-({2-[(1S,2S)-2-hydroxycyclohexyl]-3-oxo-2,3-dihydro-1H-benzo[e]isoindol-5-yl}methyl)-4-(pyridazin-3-yl)piperidine-4-carbonitrile]	0.027
O=C1c2cc(CN3CCC(F)(c4ccccc4)CC3)c3ccccc3c2CN1[C@@H]1CCCC[C@H]1O [Example 53, 5-[(4-fluoro-4-phenylpiperidin-1-yl)methyl]-2-[(1R,2R)-2-hydroxycyclohexyl]-1,2-dihydro-3H-benzo[e]isoindol-3-one]	0.248
N#CC1(c2ccccn2)CCN(Cc2cc3c(c4ccccc24)CN(C2CCOCC2)C3=O)CC1 [Example 54, 1-{[3-oxo-2-(tetrahydro-2H-pyran-4-yl)-2,3-dihydro-1H-benzo[e]isoindol-5-yl]methyl}-4-pyridin-2-ylpiperidine-4-carbonitrile]	0.279
N#CC1(c2ccccn2)CCN(Cc2cc3c(c4ccccc24)CN(C2CCCOC2)C3=O)CC1 (centres unmarked) [Example 55, 1-{[3-oxo-2-(tetrahydro-2H-pyran-3-yl)-2,3-dihydro-1H-benzo[e]isoindol-5-yl]methyl}-4-pyridin-2-ylpiperidine-4-carbonitrile]	1.5
N#CC1(c2ccccc2)CCN(Cc2cc3c(c4ccccc24)CN([C@H]2CCCC[C@@H]2O)C3=O)CC1 [Example 56, 1-({2-[(1S,2S)-2-hydroxycyclohexyl]-3-oxo-2,3-dihydro-1H-benzo[e]isoindol-5-yl}methyl)-4-phenylpiperidine-4-carbonitrile]	0.083
N#CC1(c2cccnc2)CCN(Cc2cc3c(c4ccccc24)CN([C@H]2CCCC[C@@H]2O)C3=O)CC1 [Example 57]	0.022
N#CC1(c2ccncc2)CCN(Cc2cc3c(c4ccccc24)CN([C@H]2CCCC[C@@H]2O)C3=O)CC1 [Example 58, 1-({2-[(1S,2S)-2-hydroxycyclohexyl]-3-oxo-2,3-dihydro-1H-benzo[e]isoindol-5-yl}methyl)-4-pyridin-4-ylpiperidine-4-carbonitrile]	0.021
N#CC1(c2ccccc2Cl)CCN(Cc2cc3c(c4ccccc24)CN([C@H]2CCCC[C@@H]2O)C3=O)CC1 [Example 59, 4-(2-chlorophenyl)-1-({2-[(1S,2S)-2-hydroxycyclohexyl]-3-oxo-2,3-dihydro-1H-benzo[e]isoindol-5-yl}methyl)piperidine-4-carbonitrile]	0.046
N#CC1(c2ccccc2F)CCN(Cc2cc3c(c4ccccc24)CN([C@@H]2CCCC[C@@H]2O)C3=O)CC1 [Example 60, 4-(2-fluorophenyl)-1-({2-[(1R,2S)-2-hydroxycyclohexyl]-3-oxo-2,3-dihydro-1H-benzo[e]isoindol-5-yl}methyl)piperidine-4-carbonitrile]	0.044
Cc1ccccc1C1(C#N)CCN(Cc2cc3c(c4ccccc24)CN([C@@H]2CCCC[C@@H]2O)C3=O)CC1 [Example 61, 1-({2-[(1R,2S)-2-hydroxycyclohexyl]-3-oxo-2,3-dihydro-1H-benzo[e]isoindol-5-yl}methyl)-4-(2-methylphenyl)piperidine-4-carbonitrile]	0.107
N#CC1(c2ccccn2)CCN(Cc2cc3c(c4ccccc24)CN(c2ccccc2F)C3=O)CC1 [Example 62, 1-{[2-(2-fluorophenyl)-3-oxo-2,3-dihydro-1H-benzo[e]isoindol-5-yl]methyl}-4-pyridin-2-ylpiperidine-4-carbonitrile]	0.65
Cc1ccnc(C2(C#N)CCN(Cc3cc4c(c5ccccc35)CN(c3ccccc3F)C4=O)CC2)c1 [Example 63, 1-{[2-(2-fluorophenyl)-3-oxo-2,3-dihydro-1H-benzo[e]isoindol-5-yl]methyl}-4-(4-methylpyridin-2-yl)piperidine-4-carbonitrile]	0.545
Cc1ccnc(C2(C#N)CCN(Cc3cc4c(c5ccccc35)CN([C@H]3CCCC[C@@H]3O)C4=O)CC2)c1 [Example 64, 1-({2-[(1S,2S)-2-hydroxycyclohexyl]-3-oxo-2,3-dihydro-1H-benzo[e]isoindol-5-yl}methyl)-4-(4-methylpyridin-2-yl)piperidine-4-carbonitrile]	0.0097
